Where two headings read alike, the source gives them in different places.
Columns and labels:
SRS-A release = assay: Inhibition of SRS-A (leukotriene) release from ovalbumin-challenged sensitized guinea pig lung fragments; assay type: cell-based; conditions: for inhibition at 1 µM / inhibition at 30 µM / inhibition at 3 µM / inhibition at 10 µM: Cavia porcellus, read-out: Percent Inhibition of SRS-A Release
Experimental: Male, Hartley guinea pigs, usually 1-2 weeks old were sensitized with respect to ovalbumin by intraperitoneal administration of 0.15 ml hyperimmune serum obtained from guinea pigs actively sensitized against ovalbumin. […] Poorly perfused and bloody areas were discarded. Normal lung was cut into 1 mm cubes with a McIlwain tissue chopper, washed with Krebs' solution and divided into 400 mg aliquots. The fragmented tissue was then incubated at 37° C. for 15 minutes in Krebs' solution containing indomethacin to optimize SRS-A release and an appropriate concentration of experimental drug. Antigen (ovalbumin) was then added to make a final concentration of 1×10^-5 g/ml. Fifteen minutes later, the incubation medium was decanted and centrifuged at 3,000 g at 4° C. for 5 minutes. […] Release of SRS-A in the presence of an experimental drug was compared to a control sample and the results expressed as percent inhibition of SRS-A release.

[1] = pKa using 66% aqueous dimethylformamide solution; assay type: physicochemical
Experimental: The precipitate was then dissolved in a solution of 1 L of water and 50 g of sodium hydroxide and then heated to about 60° for about ten minutes. Slowly, 50 g of sodium dithionite were added with stirring. After the addition, the reaction solution was kept at about 60° for about three hours. An orange precipitate was formed and the reaction was then allowed to cool to room temperature and sodium chloride was added. The orange solid, which was filtered and then dried, weighed 19 g (70% yield).
The preparation of 2-methyl-5-amino-8-hydroxyquinoline follows the procedure outlined in Example 1, except 15.9 g of 2-methyl-8-hydroxyquinoline were used as the starting material. […] The mass spectrum indicated the expected molecular ion at m/e=174. The pKa was 5.00, using 66% aqueous dimethylformamide solution and the apparent molecular weight was 188.

[2] = 1 × 10^-5 M, sensitized guinea pig lung fragments, ovalbumin challenge, indomethacin present
[3] = 1 × 10^-6 M, sensitized guinea pig lung fragments, ovalbumin challenge, indomethacin present
[4] = 3 × 10^-5 M, sensitized guinea pig lung fragments, ovalbumin challenge, indomethacin present
[5] = 3 × 10^-6 M, sensitized guinea pig lung fragments, ovalbumin challenge, indomethacin present

| Compound | inhibition at 30 µM (SRS-A release; [4]) [%] | inhibition at 10 µM (SRS-A release; [2]) [%] | also measured |
| --- | --- | --- | --- |
| 6-(flouroanilino)quinoline-5,8-quinone [Example 16] |  |  | Percent Inhibition of SRS-A Release (SRS-A release; [2]): 39% |
| O=C1C(Nc2ccccc2Cl)=CC(=O)c2ncccc21 [6-(2-chloroanilino)quinoline-5,8-quinone] | 78 |  | inhibition at 1 µM (SRS-A release; [3]): 24%; inhibition at 3 µM (SRS-A release; [5]): 23% |
| COc1ccccc1NC1=CC(=O)c2ncccc2C1=O [6-(2-methoxyanilino)quinoline-5,8-quinone] | 38 |  | inhibition at 3 µM (SRS-A release; [5]): 0% |
| Cc1ccccc1NC1=CC(=O)c2ncccc2C1=O [6-(2-methylanilino)quinoline-5,8-quinone] | 80 |  | inhibition at 3 µM (SRS-A release; [5]): 17% |
| C=CCNC1=CC(=O)c2ncccc2C1=O [6-(2-propenyl)aminoquinoline-5,8-quinone] |  | 53 |  |
| O=C1C(Nc2ccccc2C(F)(F)F)=CC(=O)c2ncccc21 [6-(2-trifluoromethylanilino)quinoline-5,8-quinone] |  | 52 |  |
| CSc1cccc(NC2=CC(=O)c3ncccc3C2=O)c1 [6-(3-methylthioanilino)quinoline-5,8-quinone] | 55 |  | inhibition at 3 µM (SRS-A release; [5]): 16% |
| O=C1C(Nc2ccc(Cl)cc2)=CC(=O)c2ncccc21 [6-(4-chloroanilino)quinoline-5,8-quinone] | 68 | 23 |  |
| CN(C1=CC(=O)c2ncccc2C1=O)c1ccccc1 [6-(N--methylanilino)quinoline-5,8-quinone] |  | 80 | inhibition at 1 µM (SRS-A release; [3]): 16%; inhibition at 3 µM (SRS-A release; [5]): 27% |
| CCCN(C1=CC(=O)c2ncccc2C1=O)c1ccccc1 [6-(N--propylanilino)quinoline-5,8-quinone] | 39 | 28 |  |
| C=CCN(C1=CC(=O)c2ncccc2C1=O)c1ccccc1 [6-[N--(2-propenyl)anilino]quinoline-5,8-quinone] |  | 41 |  |
| O=C1C(NC2CC2)=CC(=O)c2ncccc21 [6-cyclopropylaminoquinoline-5,8-quinone] | 48 |  |  |
| CC(C)NC1=CC(=O)c2ncccc2C1=O [6-isopropylaminoquinoline-5,8-quinone] | 28 |  |  |
| CNC1=CC(=O)c2ncccc2C1=O [6-methylaminoquinoline-5,8-quinone] | 51 | 28 |  |
| CCCN(C)C1=CC(=O)c2ncccc2C1=O [6-methylpropylaminoquinoline-5,8-quinone] |  |  | Percent Inhibition of SRS-A Release (SRS-A release; [4]): 61% |
| O=C1C(N2CCOCC2)=CC(=O)c2ncccc21 [6-morpholinylquinoline-5,8-quinone] | 63 | 28 |  |
| O=C1C(N2CCCCC2)=CC(=O)c2ncccc21 [6-piperidinylquinoline-5,8-quinone] |  | 68 |  |
| O=C1C(Nc2ccccc2)=CC(=O)c2ncccc21 [7,10, 6-anilinoquinoline-5,8-quinone] |  |  | inhibition at 1 µM (SRS-A release): 28%; inhibition at 3 µM (SRS-A release): 54%; inhibition at 10 µM (SRS-A release): 79%; inhibition at 30 µM (SRS-A release): 86% |

| Compound | inhibition at 30 µM (SRS-A release; [4]) [%] | inhibition at 10 µM (SRS-A release; [2]) [%] | also measured |
| --- | --- | --- | --- |
| COc1cc(N)c2ncccc2c1N [Example 1, 5,8-diamino-6-methoxyquinoline] |  |  | pKa [1]: 5.08 |
| Cc1ccc2c(N)ccc(O)c2n1 [Example 2, 2-methyl-5-amino-8-hydroxyquinoline] |  |  | pKa [1]: 5 |
| COc1ccc(NC2=CC(=O)c3ncccc3C2=O)cc1 [Example 8, 6-(4-methoxyanilino)quinoline-5,8-quinone] |  | 32 |  |
| O=C1C(Nc2ccc([N+](=O)[O-])cc2)=CC(=O)c2ncccc21 [Example 9, 6-(4-nitroanilino)quinoline-5,8-quinone] |  | 41 |  |
| Cc1ccc2c(n1)C(=O)C=C(Nc1ccccc1)C2=O [Example 11, 2-methyl-6-anilinoquinoline-5,8-quinone] |  | 55 |  |
| O=C1C(Nc2cccc3c2CCCC3)=CC(=O)c2ncccc21 [Example 12, 6-(1-amino-5,6,7,8-tetrahydronaphthalene)quinoline-5,8-quinone] |  | 23 |  |
| O=C1C(Nc2ccc(O)cc2)=CC(=O)c2ncccc21 [Example 13, 6-(4-hydroxyanilino)quinoline-5,8-quinone] |  | 58 |  |
| O=C1C(NC2CCCCC2)=CC(=O)c2ncccc21 [Example 14, 6-cyclohexylaminoquinoline-5,8-quinone] |  | 53 | inhibition at 1 µM (SRS-A release; [3]): 0% |
| CCN(C1=CC(=O)c2ncccc2C1=O)c1ccccc1 [Example 15, 6-(N--ethylanilino)quinoline-5,8-quinone] |  | 53 |  |
| O=C1C(Nc2ccccc2F)=CC(=O)c2ncccc21 [Example 17, 6-(2-flouroanilino)quinoline-5,8-quinone] |  | 71 | inhibition at 1 µM (SRS-A release; [3]): 0% |
| CN(C)CCNC1=CC(=O)c2ncccc2C1=O [Example 18, 6-dimethylaminoethylaminoquinoline-5,8-quinone] |  | 40 |  |
| O=C1C(Nc2cccc(F)c2)=CC(=O)c2ncccc21 [Example 19, 6-(3-flouroanilino)quinoline-5,8-quinone] | 94 | 76 | inhibition at 1 µM (SRS-A release; [3]): 13% |
| Cc1cccc(NC2=CC(=O)c3ncccc3C2=O)c1 [Example 20, 6-(3-methylanilino)quinoline-5,8-quinone] |  | 69 |  |
| COc1cccc(NC2=CC(=O)c3ncccc3C2=O)c1 [Example 21, 6-(3-methoxyanilino)quinoline-5,8-quinone] |  | 72 |  |
| O=C1C(Nc2cccc(Cl)c2)=CC(=O)c2ncccc21 [Example 22, 6-(3-chloroanilino)quinoline-5,8-quinone] |  | 71 |  |
| O=C1C(Nc2cccc(Br)c2)=CC(=O)c2ncccc21 [Example 23, 6-(3-bromoanilino)quinoline-5,8-quinone] |  | 45 |  |
| O=C1C(Nc2cccc(C(F)(F)F)c2)=CC(=O)c2ncccc21 [Example 24, 6-(3-triflouromethylanilino)quinoline-5,8-quinone] |  | 53 |  |
| CC(=O)c1cccc(NC2=CC(=O)c3ncccc3C2=O)c1 [Example 25, 6-(3-acetylanilino)quinoline-5,8-quinone] |  |  | inhibition at 3 µM (SRS-A release; [5]): 36% |
